# Results: US9309284B2 (priority 2012, dated 2016)
# Key:
# NV 3CL protease = NV 3CL protease (Norovirus, UniProt Q83883); assay: biochemical; parameters: species or system norovirus strain Norwalk
# [1] = system: NV in replicon-harboring cells; assay: cell-based norovirus replicon system (NV replicon-harboring cells, HG23); settings: Norwalk virus, α-hydroxyphosphonates, mixtures of epimers
# cells = assay: cell cytotoxicity (microscopy and CytoTox 96 assay); format: cell-based
# Source text: Cell Cytotoxicity. The nonspecific cytotoxic effects of each compound on cells were monitored by observation under a microscopy and CytoTox 96 Non-radioactive cytotoxicity assay (Promega, Madison, Wis.).
# EV71 3C protease = EV71 3C protease (Human enterovirus 71, UniProt Q66478); assay: biochemical
# SARS-CoV 3CL protease = SARS-CoV 3CL protease (Severe acute respiratory syndrome coronavirus, UniProt P0C6X7); assay: biochemical
# NV 3CL protease, sequence (Q83883 1101-1281 limits assumed): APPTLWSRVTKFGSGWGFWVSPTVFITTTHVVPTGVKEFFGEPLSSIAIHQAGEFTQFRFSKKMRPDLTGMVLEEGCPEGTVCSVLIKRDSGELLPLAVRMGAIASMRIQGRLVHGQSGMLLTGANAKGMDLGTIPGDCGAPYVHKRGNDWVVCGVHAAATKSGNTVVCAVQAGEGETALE
# EV71 3C protease, sequence (Q66478 1549-1731 limits assumed): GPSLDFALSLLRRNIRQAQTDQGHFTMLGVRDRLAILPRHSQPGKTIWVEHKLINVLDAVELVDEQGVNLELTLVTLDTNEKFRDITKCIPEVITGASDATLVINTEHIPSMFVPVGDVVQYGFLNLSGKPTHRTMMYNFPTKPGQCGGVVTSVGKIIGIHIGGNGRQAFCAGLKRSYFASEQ
Compound,IC50 (NV 3CL protease),EC50 [1],toxicity to cells (no toxicity up to) (cells),IC50 (EV71 3C protease),IC50 (SARS-CoV 3CL protease)
CCOP(=O)(OCC)C(O)[C@H](CC1CCNC1=O)NC(=O)[C@H](CC(C)C)NC(=O)OCc1ccccc1 (mixture of isomers) [Compound 7a],> 50000 nM,1.1 µM,–,–,–
COP(=O)(OC)C(O)[C@H](CC1CCNC1=O)NC(=O)[C@H](CC(C)C)NC(=O)OCc1ccccc1 (mixture of isomers) [Compound 7b],> 50000 nM,3.5 µM,–,–,–
CC(C)C[C@H](NC(=O)OCc1ccccc1)C(=O)N[C@@H](CC1CCNC1=O)C(O)P(=O)(O)O (mixture of isomers) [Compound 7c],> 50000 nM,0.8 µM,–,–,–
CCOP(=O)(OCC)C(O)[C@H](CC1CCNC1=O)NC(=O)[C@H](CC1CCCCC1)NC(=O)OCc1ccccc1 (mixture of isomers) [Compound 7d],> 50000 nM,0.25 µM,–,–,–
COP(=O)(OC)C(O)[C@H](CC1CCNC1=O)NC(=O)[C@H](CC1CCCCC1)NC(=O)OCc1ccccc1 (mixture of isomers) [Compound 7e],> 50000 nM,2.8 µM,–,–,–
CCCCOP(=O)(OCCCC)C(O)[C@H](CC1CCNC1=O)NC(=O)[C@H](CC1CCCCC1)NC(=O)OCc1ccccc1 (mixture of isomers) [Compound 7f],> 50000 nM,0.5 µM,–,–,–
O=C(N[C@@H](CC1CCCCC1)C(=O)N[C@@H](CC1CCNC1=O)C(O)P(=O)(OCC(F)(F)F)OCC(F)(F)F)OCc1ccccc1 (mixture of isomers) [Compound 7g],> 50000 nM,0.25 µM,–,–,–
O=C(N[C@@H](CC1CCCCC1)C(=O)N[C@@H](CC1CCNC1=O)C(O)P(=O)(OCc1ccccc1)OCc1ccccc1)OCc1ccccc1 (mixture of isomers) [Compound 7h],> 50000 nM,0.6 µM,–,–,–
"O=CC(CC1CCNC1=O)NC(=O)C(CC1CCCCC1)N1C(=O)CCC(NC(=O)OCc2ccccc2)C1=O (centres unmarked) [Compound 5, Benzyl(1-(3-cyclohexyl-1-oxo-1-((1-oxo-3-(2-oxopyrrolidin-3-yl)propan-2-yl)amino)propan-2-yl)-2,6-dioxopperidin-3-yl)carbamate]",–,–,> 150 µM,–,–
"CC(C)C[C@@H]1NC(=O)[C@@H](NC(=O)OCc2ccccc2)Cc2cn(nn2)CCCNC(=O)CC[C@@H](C=O)NC1=O [Compound 13, Benzyl(9-formyl-12-isobutyl-6,11,14-trioxo-1,5,10,13,18,19-hexaazabicyclo[15.2.1]icosa-17(20),18-dien-15-yl)carbamate]",5100 nM,–,–,1800 nM,15500 nM
